We go through 3 compounds from publication PMC5862567, “Validating and enabling phosphoglycerate dehydrogenase (PHGDH) as a target for fragment-based drug discovery in PHGDH-amplified breast cancer” (Oncotarget, 2016).

Experiment [1] has as its target T1, recombinant full-length PHGDH (Homo sapiens, UniProt O43175).
T1 construct: encoding for the full-length enzyme (aa 1-533); His6 (N, cleaved yes); TEV protease recognition site (N, cleaved yes); made in house; host or cells: E. coli Rosetta (DE3)
T1 sequence (O43175 1-533): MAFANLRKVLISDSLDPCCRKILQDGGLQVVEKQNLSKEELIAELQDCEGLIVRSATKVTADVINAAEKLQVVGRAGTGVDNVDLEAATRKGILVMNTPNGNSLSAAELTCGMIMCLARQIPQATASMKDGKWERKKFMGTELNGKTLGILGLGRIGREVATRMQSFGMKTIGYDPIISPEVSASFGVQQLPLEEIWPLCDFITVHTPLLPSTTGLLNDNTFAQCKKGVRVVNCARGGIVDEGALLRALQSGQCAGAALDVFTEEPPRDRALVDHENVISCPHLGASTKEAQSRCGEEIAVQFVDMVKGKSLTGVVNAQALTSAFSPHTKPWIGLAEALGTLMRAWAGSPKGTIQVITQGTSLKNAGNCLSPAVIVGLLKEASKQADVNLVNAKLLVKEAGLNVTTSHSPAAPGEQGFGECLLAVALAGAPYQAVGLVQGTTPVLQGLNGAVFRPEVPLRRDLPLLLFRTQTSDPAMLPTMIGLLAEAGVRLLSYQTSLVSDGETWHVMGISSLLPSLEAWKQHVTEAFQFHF
Kind of experiment: Differential scanning fluorimetry (DSF) thermal shift assay, fragment screen. The format is binding. Set-up: key to Z score: Z-score of Tm shift, in standard deviations from the screen mean. Conditions: for Z score: average Z score of primary fragment screens by DSF; for ΔTm at 1000 µM: fragment 1 mM, primary DSF screen, 15 μM PHGDH, read-out: ΔTm (screening hit); for ΔTm (repurchased fragment): DSF. The protocol: In this study a ‘rule-of-three’ [18] compliant library of 600 fragments (CRT Cambridge, UK) was screened against recombinant full-length PHGDH using a differential scanning fluorimetry (DSF) assay. PHGDH has an average melting temperature (Tm) of 54 °C. Fragments were screened at 1 mM in the presence of 1 % DMSO. 1 mM NADH was used as positive control, and gave an increased Tm of 61 °C, corresponding to a Δ Tm of 7 °C (Supplementary Figure S2). Hits were determined based on an average Z-score ≥ 1, i.e. to a change in Tm of PHGDH equal to or greater than one standard deviation of the mean (Supplementary Table S1). Applying this threshold, 42 compounds were classified as hits, which corresponds to a hit rate of […]. A subset of 15 fragments was commercially available and were repurchased and further evaluated in an ITC competition experiment (Figure 3, Table 1, Supplementary Figure S3). The ITC competition experiments confirmed binding of 13 fragments to the cofactor-binding pocket of PHGDH. […] In order to further characterise the hits, and to help us prioritise their use as seeds for further hit-expansion studies, we undertook a crystallographic investigation of their respective binding modes.
The DSF assay was performed in 384-well plates (Corning, black) in 25 mM HEPES, pH 7.5, 100 mM NaCl, 0.5 mM TCEP, 10 x SYPRO® Orange (Thermo Fisher Scientific), in a final volume of 15 μL containing 15 μM PHGDH and […]. The fragments were added from a 100 mM master stock in 100 % DMSO to a final concentration of 1 mM using an ECHO® acoustic liquid handler (Labcyte). Reference wells contained DMSO only and 1 mM NADH was used as positive control.
The heat denaturation profile of PHGDH was followed using the fluorescence of Sypro Orange with excitation and emission wavelengths of 470 and 570 nm, respectively. Analysis was performed in GraphPad Prism using the Boltzmann equation to determine the melting temperature, Tm, which is the inflection point of the sigmoidal denaturation curve.
For orientation: In DSF a fluorescence change marks the thermal transition of the protein.

The target of experiment [2] is T2, sPHGDH (aa 3-314), cofactor-binding pocket (Homo sapiens, UniProt O43175).
T2 construct: the truncated version (sPHGDH, aa 3-314); His6 (N, cleaved yes); TEV protease recognition site (N, cleaved yes); made in house; host or cells: E. coli Rosetta (DE3)
T2 sequence (O43175 3-314): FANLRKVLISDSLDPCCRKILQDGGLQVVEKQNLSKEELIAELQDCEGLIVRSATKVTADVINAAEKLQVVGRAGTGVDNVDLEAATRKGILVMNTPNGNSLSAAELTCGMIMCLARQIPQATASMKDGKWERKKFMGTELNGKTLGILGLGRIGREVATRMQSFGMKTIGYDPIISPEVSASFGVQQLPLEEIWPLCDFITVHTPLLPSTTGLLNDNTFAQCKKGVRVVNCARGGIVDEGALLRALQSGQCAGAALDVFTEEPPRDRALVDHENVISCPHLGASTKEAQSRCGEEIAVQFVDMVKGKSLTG
Kind of experiment: ITC competition experiment (NADH titrated into sPHGDH premixed with fragment). Conditions: for Kd / ΔH / ΔS: competition ITC, 5 mM fragment, 25 °C; for Kd: 0.5 mM NADH into 0.05 mM sPHGDH, 5 % DMSO, read-out: Kd; for LE: ΔG per number of non-hydrogen atoms (= #).
Method: To remove residual bound cofactor, sPHGDH was incubated with 0.5 equivalents of activated charcoal for 30 minutes at room temperature prior to performing the ITC experiments. […] 1 x 0.5 μL, followed by 17 x 2 μL injections of ligands into protein with 120 seconds spacing between the injections was conducted. Titration of 0.5 mM NADH in 5 % DMSO into 0.05 mM sPHGDH in 5 % DMSO was used as reference.

In another experiment the test system is PHGDH. The settings on record: cited from earlier work.

For `O=C1COc2cc(O)ccc21` [Fragment 8, 6-Hydroxy-2,3-dihydrobenzo[b] furan-3-one], in experiment [1], the Z score is 1.5 ± 0.4, the ΔTm at 1000 µM is 1.7 ± 0.6 °C and the “ΔTm (repurchased fragment)” value is 0.4 ± 0.4 °C. Further, in experiment [2], the Kd came to 5.9 ± 1.5 mM, the ΔH is -69.96 kcal/mol, the ΔS is -1.02 kJ (mol x K) and the LE is 0.28 kcal/(mol·heavy atom).
With `CCOC(=O)c1sc(NC(=O)c2ccco2)c(SC#N)c1C` [CBR-5884], in the experiment with PHGDH, the “mode of PHGDH inhibition” value is “non-competitive”.
As to `Oc1noc2ccccc12` [Fragment 16, 3-Hydroxy benzisoxazole], in experiment [1], the Z score turned out to be 1.4 ± 0.7, the ΔTm at 1000 µM stood at 2.5 ± 0.7 °C and the “ΔTm (repurchased fragment)” value turned out to be 0.2 ± 0.3 °C. In addition, in experiment [2], the Kd amounted to 6.5 ± 4.7 mM, the ΔH is -91.44 kcal/mol, the ΔS is -1.33 kJ (mol x K) and the LE was 0.3 kcal/(mol·heavy atom).

As usually defined, the ΔTm is the shift of the melting midpoint relative to a reference. Broadly, the Kd is the concentration at which binding is half-saturated.
